Results: patent US10954232B2, “Pyrazole derivative as ALK5 inhibitor and uses thereof” (HANMI PHARMACEUTICAL CO., LTD., priority 2016, dated 2021)

Biological target: T1, ALK5 kinase (Homo sapiens, UniProt P36897)
T1 construct: GST; purchased Thermo Fisher Scientific Solutions
T1 sequence (P36897 34-503): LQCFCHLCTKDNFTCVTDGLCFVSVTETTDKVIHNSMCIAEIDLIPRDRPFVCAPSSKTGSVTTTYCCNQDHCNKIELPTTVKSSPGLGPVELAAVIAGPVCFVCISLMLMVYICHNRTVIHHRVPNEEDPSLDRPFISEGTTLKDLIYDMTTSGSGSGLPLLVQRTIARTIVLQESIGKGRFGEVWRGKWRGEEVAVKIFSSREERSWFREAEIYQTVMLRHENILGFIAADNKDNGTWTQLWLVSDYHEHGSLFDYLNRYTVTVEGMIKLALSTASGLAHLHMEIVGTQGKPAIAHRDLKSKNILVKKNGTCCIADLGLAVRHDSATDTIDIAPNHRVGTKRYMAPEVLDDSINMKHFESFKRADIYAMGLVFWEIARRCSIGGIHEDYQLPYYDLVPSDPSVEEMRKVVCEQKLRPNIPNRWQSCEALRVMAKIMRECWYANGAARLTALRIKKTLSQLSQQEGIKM
Experiment: Activity inhibition test on ALK5 enzyme (LanthaScreen Eu binding kinase assay)
Conditions: kinase tracer 178, 60 minutes at room temperature
In short: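 IC50 is the concentration giving 50% inhibition relative to control, taken from fluorescence after 60 min stirring at room temperature. Final mix held kinase 5 nM, Eu-GST binding antibody 2 nM and tracer 178 10 nM. Compounds were serially diluted from 1 μM to 0.0001 μM.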

Row | SMILES | IC50
1 | Cc1cccc(-n2nc(C(=O)Nc3ccc(S(N)(=O)=O)cc3)cc2-c2ccc3ncnn3c2)n1 [Example 148, 5-([1,2,4]triazolo[1,5-α]pyridin-6-yl)-N-(4-sulfamoylphenyl)-1-(6-methylpyridin-2-yl)-1H-pyrazole-3-carboxyamide] | 8.3 nM
2 | Cc1cccc(-n2nc(C(=O)Nc3ccc(S(C)(=N)=O)cc3)cc2-c2ccc3ncnn3c2)n1 (stereo not drawn) [Example 149, 5-([1,2,4]triazolo[1,5-α]pyridin-6-yl)-N-(4-(S-methylsulfonimidoyl)phenyl)-1-(6-methylpyridin-2-yl)-1H-pyrazole-3-carboxyamide] | 7.7 nM
3 | CCCS(=O)(=O)c1ccc(NC(=O)c2cc(-c3ccc4ncnn4c3)n(-c3cccc(C)n3)n2)cc1 [Example 150, 5-([1,2,4]triazolo[1,5-α]pyridin-6-yl)-N-(4-(propylsulfonyl)phenyl)-1-(6-methylpyridin-2-yl)-1H-pyrazole-3-carboxyamide] | 4.8 nM
4 | CCCS(=O)(=O)c1ccc(NC(=O)c2cc(-c3ccc4ncnn4c3)n(-c3cccc(C)n3)n2)cc1 [Example 151, 5-([1,2,4]triazolo[1,5-α]pyridin-6-yl)-N-(4-(propylsulfonyl)phenyl)-1-(6-methylpyridin-2-yl)-1H-pyrazole-3-carboxyamide] | 2.7 nM
5 | Cc1cccc(-n2nc(C(=O)Nc3ccc(F)nc3)cc2-c2ccc3ncnn3c2)n1 [Example 152, 5-([1,2,4]triazolo[1,5-α]pyridin-6-yl)-N-(6-fluoropyridin-3-yl)-1-(6-methylpyridin-2-yl)-1H-pyrazole-3-carboxyamide] | 4.6 nM
6 | Cc1cccc(-n2nc(C(=O)Nc3ccc(Cl)nc3)cc2-c2ccc3ncnn3c2)n1 [Example 153, 5-([1,2,4]triazolo[1,5-α]pyridin-6-yl)-N-(6-chloropyridin-3-yl)-1-(6-methylpyridin-2-yl)-1H-pyrazole-3-carboxyamide] | 25 nM
7 | COc1ccc(NC(=O)c2cc(-c3ccc4ncnn4c3)n(-c3cccc(C)n3)n2)cn1 [Example 154, 5-([1,2,4]triazolo[1,5-α]pyridin-6-yl)-N-(6-methoxypyridin-3-yl)-1-(6-methylpyridin-2-yl)-1H-pyrazole-3-carboxyamide] | ~10 nM
8 | Cc1cccc(-n2nc(C(=O)NCc3ccccc3F)cc2-c2ccc3ncnn3c2)n1 [Example 155, 5-([1,2,4]triazolo[1,5-α]pyridin-6-yl)-N-(2-fluorobenzyl)-1-(6-methylpyridin-2-yl)-1H-pyrazole-3-carboxyamide] | 13 nM
9 | Cc1cccc(-n2nc(C(=O)NCc3cccc(F)c3)cc2-c2ccc3ncnn3c2)n1 [Example 156, 5-([1,2,4]triazolo[1,5-α]pyridin-6-yl)-N-(3-fluorobenzyl)-1-(6-methylpyridin-2-yl)-1H-pyrazole-3-carboxyamide] | 22 nM
10 | Cc1cccc(-n2nc(C(=O)NCc3ccc(F)cc3)cc2-c2ccc3ncnn3c2)n1 [Example 157, 5-([1,2,4]triazolo[1,5-α]pyridin-6-yl)-N-(4-fluorobenzyl)-1-(6-methylpyridin-2-yl)-1H-pyrazole-3-carboxyamide] | 10 to 100 nM
11 | COc1cccc(CNC(=O)c2cc(-c3ccc4ncnn4c3)n(-c3cccc(C)n3)n2)c1 [Example 158, 5-([1,2,4]triazolo[1,5-α]pyridin-6-yl)-N-(3-methoxybenzyl)-1-(6-methylpyridin-2-yl)-1H-pyrazole-3-carboxyamide] | 10 to 100 nM
12 | COc1ccc(CNC(=O)c2cc(-c3ccc4ncnn4c3)n(-c3cccc(C)n3)n2)cc1 [Example 159, 5-([1,2,4]triazolo[1,5-α]pyridin-6-yl)-N-(4-methoxybenzyl)-1-(6-methylpyridin-2-yl)-1H-pyrazole-3-carboxyamide] | 10 to 100 nM
13 | Cc1cccc(-n2nc(C(=O)NCc3ccc(N(C)C)cc3)cc2-c2ccc3ncnn3c2)n1 [Example 160, 5-([1,2,4]triazolo[1,5-α]pyridin-6-yl)-N-(4-(dimethylamino)benzyl)-1-(6-methylpyridin-2-yl)-1H-pyrazole-3-carboxyamide] | 10 to 100 nM
14 | CC(=O)Nc1ccc(CNC(=O)c2cc(-c3ccc4ncnn4c3)n(-c3cccc(C)n3)n2)cc1 [Example 161, 5-([1,2,4]triazolo[1,5-α]pyridin-6-yl)-N-(4-acetamidobenzyl)-1-(6-methylpyridin-2-yl)-1H-pyrazole-3-carboxyamide] | 10 to 100 nM
15 | Cc1cccc(-n2nc(C(=O)Nc3cnn(S(C)(=O)=O)c3)cc2-c2ccc3ncnn3c2)n1 [Example 162, 5-([1,2,4]triazolo[1,5-α]pyridin-6-yl)-1-(6-methylpyridin-2-yl)-N-(1-(methylsulfonyl)-1H-pyrazol-4-yl)-1H-pyrazole-3-carboxyamide] | 2 nM
16 | COc1ccc(NC(=O)c2cc(-c3ccc4nccnc4c3)n(-c3cccc(C)n3)n2)cc1 [Example 164, N-(4-methoxyphenyl)-1-(6-methylpyridin-2-yl)-5-(quinoxalin-6-yl)-1H-pyrazole-3-carboxyamide] | 18 nM

Row | SMILES | IC50
17 | COc1cccc(NC(=O)c2cc(-c3ccc4nccnc4c3)n(-c3cccc(C)n3)n2)c1 [Example 165, N-(3-methoxyphenyl)-1-(6-methylpyridin-2-yl)-5-(quinoxalin-6-yl)-1H-pyrazole-3-carboxyamide] | 24 nM
18 | COc1ccccc1NC(=O)c1cc(-c2ccc3nccnc3c2)n(-c2cccc(C)n2)n1 [Example 166, N-(2-methoxyphenyl)-1-(6-methylpyridin-2-yl)-5-(quinoxalin-6-yl)-1H-pyrazole-3-carboxyamide] | ~100 nM
19 | COCCOc1ccc(NC(=O)c2cc(-c3ccc4nccnc4c3)n(-c3cccc(C)n3)n2)cc1 [Example 167, N-(4-(2-methoxyethoxy)phenyl)-1-(6-methylpyridin-2-yl)-5-(quinoxalin-6-yl)-1H-pyrazole-3-carboxyamide] | ≤ 100 nM
20 | Cc1cccc(-n2nc(C(=O)Nc3ccc4c(c3)OCO4)cc2-c2ccc3nccnc3c2)n1 [Example 168, N-(benzo[d][1,3]dioxol-5-yl)-1-(6-methylpyridin-2-yl)-5-(quinoxalin-6-yl)-1H-pyrazole-3-carboxyamide] | ≤ 100 nM
21 | Cc1cccc(-n2nc(C(=O)Nc3ccc4c(c3)OCCO4)cc2-c2ccc3nccnc3c2)n1 [Example 169, N-(2,3-dihydrobenzo[b][1,4]dioxin-6-yl)-1-(6-methylpyridin-2-yl)-5-(quinoxalin-6-yl)-1H-pyrazole-3-carboxyamide] | 10 to 100 nM
22 | Cc1cccc(-n2nc(C(=O)Nc3ccc(N(C)C)cc3)cc2-c2ccc3nccnc3c2)n1 [Example 170, N-(4-(dimethylamino)phenyl)-1-(6-methylpyridin-2-yl)-5-(quinoxalin-6-yl)-1H-pyrazole-3-carboxyamide] | < 100 nM
23 | Cc1cccc(-n2nc(C(=O)Nc3ccc(N4CCOCC4)cc3)cc2-c2ccc3nccnc3c2)n1 [Example 171, 1-(6-methylpyridin-2-yl)-N-(4-morpholinophenyl)-5-(quinoxalin-6-yl)-1H-pyrazole-3-carboxyamide] | 10 to 100 nM
24 | Cc1cccc(-n2nc(C(=O)Nc3ccc(N4CCN(C)CC4)cc3)cc2-c2ccc3nccnc3c2)n1 [Example 172, N-(4-(4-methylpiperazin-1-yl)phenyl)-1-(6-methylpyridin-2-yl)-5-(quinoxalin-6-yl)-1H-pyrazole-3-carboxyamide] | 10 to 100 nM
25 | CC(=O)N1CCN(c2ccc(NC(=O)c3cc(-c4ccc5nccnc5c4)n(-c4cccc(C)n4)n3)cc2)CC1 [Example 173, N-(4-(4-acetylpiperazin-1-yl)phenyl)-1-(6-methylpyridin-2-yl)-5-(quinoxalin-6-yl)-1H-pyrazole-3-carboxyamide] | 10 to 100 nM
26 | Cc1cccc(-n2nc(C(=O)Nc3ccc(C#N)cc3)cc2-c2ccc3nccnc3c2)n1 [Example 174, N-(4-cyanophenyl)-1-(6-methylpyridin-2-yl)-5-(quinoxalin-6-yl)-1H-pyrazole-3-carboxyamide] | < 100 nM
27 | Cc1cccc(-n2nc(C(=O)Nc3cccc(C#N)c3)cc2-c2ccc3nccnc3c2)n1 [Example 175, N-(3-cyanophenyl)-1-(6-methylpyridin-2-yl)-5-(quinoxalin-6-yl)-1H-pyrazole-3-carboxyamide] | < 100 nM
28 | Cc1cccc(-n2nc(C(=O)Nc3ccc(CN4CCOCC4)cc3)cc2-c2ccc3nccnc3c2)n1 [Example 177, 1-(6-methylpyridin-2-yl)-N-(4-(morpholinomethyl)phenyl)-5-(quinoxalin-6-yl)-1H-pyrazole-3-carboxyamide] | ~100 nM
29 | CC(=O)c1ccc(NC(=O)c2cc(-c3ccc4nccnc4c3)n(-c3cccc(C)n3)n2)cc1 [Example 178, N-(4-acetylphenyl)-1-(6-methylpyridin-2-yl)-5-(quinoxalin-6-yl)-1H-pyrazole-3-carboxyamide] | 10 to 100 nM
30 | CC(=O)c1cccc(NC(=O)c2cc(-c3ccc4nccnc4c3)n(-c3cccc(C)n3)n2)c1 [Example 179, N-(3-acetylphenyl)-1-(6-methylpyridin-2-yl)-5-(quinoxalin-6-yl)-1H-pyrazole-3-carboxyamide] | < 100 nM
31 | Cc1cccc(-n2nc(C(=O)Nc3ccc(C(F)(F)F)cc3)cc2-c2ccc3nccnc3c2)n1 [Example 180, 1-(6-methylpyridin-2-yl)-5-(quinoxalin-6-yl)-N-(4-(trifluoromethyl)phenyl)-1H-pyrazole-3-carboxyamide] | 100 to 1000 nM
